{"source": "ChEMBL document CHEMBL1140099", "about": "“Identification of BRAF inhibitors through in silico screening” (J Med Chem, 2008)", "data": [{"molecular_target": "T1, Serine/threonine-protein kinase B-raf (Homo sapiens, UniProt P15056)", "T1 sequence (P15056 whole entry)": "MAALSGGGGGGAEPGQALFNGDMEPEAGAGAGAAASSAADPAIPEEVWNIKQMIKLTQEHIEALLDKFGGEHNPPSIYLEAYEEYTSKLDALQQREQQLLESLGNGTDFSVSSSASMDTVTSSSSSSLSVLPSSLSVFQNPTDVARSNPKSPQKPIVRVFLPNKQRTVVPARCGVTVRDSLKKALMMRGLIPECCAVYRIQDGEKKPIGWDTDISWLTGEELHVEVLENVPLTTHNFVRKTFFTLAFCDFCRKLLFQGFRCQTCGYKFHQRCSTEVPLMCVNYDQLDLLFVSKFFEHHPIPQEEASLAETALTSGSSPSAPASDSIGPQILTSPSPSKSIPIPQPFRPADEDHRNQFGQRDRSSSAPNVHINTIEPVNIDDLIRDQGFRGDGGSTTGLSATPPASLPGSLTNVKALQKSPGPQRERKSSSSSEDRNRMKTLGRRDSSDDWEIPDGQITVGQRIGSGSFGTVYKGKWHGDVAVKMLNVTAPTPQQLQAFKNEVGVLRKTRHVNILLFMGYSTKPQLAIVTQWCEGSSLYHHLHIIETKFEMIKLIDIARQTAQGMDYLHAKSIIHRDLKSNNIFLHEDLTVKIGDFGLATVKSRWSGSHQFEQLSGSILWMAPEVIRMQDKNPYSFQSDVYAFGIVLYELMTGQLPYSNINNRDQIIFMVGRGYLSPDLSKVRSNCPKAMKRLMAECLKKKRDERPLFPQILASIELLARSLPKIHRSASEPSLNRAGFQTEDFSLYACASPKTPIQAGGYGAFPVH", "assay": "Inhibition of human cloned wild type BRAF at 50 uM by ELISA-based MEK phosphorylation assay", "units": {"inhibition": "%"}, "values": [{"compound": "Cn1c(=O)[nH]c(=O)c2c1nc(S)n2Cc1ccc(Cl)cc1", "inhibition": 90}]}, {"molecular_target": "Phosphatidylinositol 4,5-bisphosphate 3-kinase catalytic subunit gamma isoform (Homo sapiens, UniProt P48736)", "sequence (P48736 whole entry, the tested form may be a part, canonical isoform)": "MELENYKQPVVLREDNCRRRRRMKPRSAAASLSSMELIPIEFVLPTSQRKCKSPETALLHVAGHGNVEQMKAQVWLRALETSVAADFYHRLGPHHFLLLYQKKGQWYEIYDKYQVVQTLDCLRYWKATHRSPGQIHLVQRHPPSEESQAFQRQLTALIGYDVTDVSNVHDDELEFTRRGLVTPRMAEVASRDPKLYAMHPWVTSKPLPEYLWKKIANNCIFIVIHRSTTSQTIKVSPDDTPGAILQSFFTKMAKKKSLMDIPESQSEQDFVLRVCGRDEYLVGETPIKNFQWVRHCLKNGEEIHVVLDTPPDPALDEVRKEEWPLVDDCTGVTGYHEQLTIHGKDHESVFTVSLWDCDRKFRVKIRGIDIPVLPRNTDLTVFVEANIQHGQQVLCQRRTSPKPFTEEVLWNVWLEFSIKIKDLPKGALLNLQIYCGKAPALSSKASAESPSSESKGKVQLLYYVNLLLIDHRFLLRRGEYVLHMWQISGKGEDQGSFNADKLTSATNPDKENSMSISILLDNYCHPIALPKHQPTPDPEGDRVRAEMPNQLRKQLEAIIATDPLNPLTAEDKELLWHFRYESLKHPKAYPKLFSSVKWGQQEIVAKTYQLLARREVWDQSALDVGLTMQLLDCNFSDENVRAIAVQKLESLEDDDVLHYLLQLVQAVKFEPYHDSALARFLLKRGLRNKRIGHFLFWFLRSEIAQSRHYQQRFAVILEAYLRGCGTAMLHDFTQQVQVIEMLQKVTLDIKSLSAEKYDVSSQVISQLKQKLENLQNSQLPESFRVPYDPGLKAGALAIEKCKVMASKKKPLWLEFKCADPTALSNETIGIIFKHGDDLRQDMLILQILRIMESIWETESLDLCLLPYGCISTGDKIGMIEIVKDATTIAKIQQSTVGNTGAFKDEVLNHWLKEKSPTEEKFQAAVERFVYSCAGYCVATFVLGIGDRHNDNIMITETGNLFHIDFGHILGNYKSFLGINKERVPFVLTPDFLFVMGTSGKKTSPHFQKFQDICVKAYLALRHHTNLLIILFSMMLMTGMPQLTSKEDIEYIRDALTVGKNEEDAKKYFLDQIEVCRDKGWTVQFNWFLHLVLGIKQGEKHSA", "assay": "Inhibition of human recombinant PI3Kgamma catalytic domain", "units": {"IC50": "µM"}, "values": [{"compound": "Cn1c(=O)n(Cc2ccccc2)c(=O)c2c1nc(SCCO)n2Cc1ccccc1", "IC50": 25}]}, {"molecular_target": "T1, Serine/threonine-protein kinase B-raf", "units": {"IC50": "µM"}, "description": "Inhibition of human cloned wild type BRAF by ELISA-based MEK phosphorylation assay", "values": [{"compound": "Cn1c(=O)[nH]c(=O)c2c1nc(SCC(N)=O)n2Cc1cccc(Br)c1", "IC50": 11.1}, {"compound": "COc1cc(C2C(C#N)=C(N)OC3=C2C(=O)CCC3)ccc1Cn1nc(C)c([N+](=O)[O-])c1C", "note": "(stereo not drawn)", "IC50": "> 100"}, {"compound": "O=C(Cn1c2ccccc2n2ncnc12)c1cccs1", "IC50": "> 100"}, {"compound": "Cc1cc(C)n(-c2nc3c(c(=O)n(C)c(=O)n3C)n2Cc2ccccc2)n1", "IC50": 57.7}, {"compound": "Cn1c(=O)[nH]c(=O)c2c1nc(N/N=C\\c1cccc([N+](=O)[O-])c1)n2Cc1ccccc1", "IC50": "> 50"}, {"compound": "Cc1cc(C2C(C(=O)c3ccc4c(c3)OCCO4)=C(O)C(=O)N2CCCn2ccnc2)co1", "note": "(stereo not drawn)", "IC50": "> 100"}, {"compound": "CN1CCN(CC(=O)N2N=C(c3cccs3)CC2c2ccco2)CC1", "note": "(stereo not drawn)", "IC50": "> 100"}, {"compound": "CC1Nc2nc(NC(=O)c3ccc[n+](C)c3)[nH]c(=O)c2N(C(=O)c2ccc[n+](C)c2)C1C", "note": "(stereo not drawn)", "IC50": 29.4}, {"compound": "COc1cc(/C=N/NC(=O)CN2CCN(c3ccc(F)cc3)CC2)ccc1O", "IC50": "> 100"}, {"compound": "Cn1c(=O)n(Cc2ccccc2)c(=O)c2c1nc(SCCO)n2Cc1ccccc1", "IC50": 1.72}, {"compound": "C/C(Cl)=C/Cn1c(N/N=C(/C)c2ccc([N+](=O)[O-])cc2)nc2c1c(=O)[nH]c(=O)n2C", "IC50": 17.4}, {"compound": "C/C(=N/Nc1nc2c(c(=O)[nH]c(=O)n2C)n1Cc1ccccc1)c1ccc([N+](=O)[O-])cc1", "IC50": 4.6}, {"compound": "COc1cccc(N2C(=O)CC(N3CCN(Cc4ccccc4)CC3)C2=O)c1", "note": "(stereo not drawn)", "IC50": "> 100"}, {"compound": "Cn1c(=O)[nH]c(=O)c2c1[nH]c(=S)n2Cc1ccc(Cl)cc1", "IC50": 2.1}, {"compound": "CC(=O)c1c(C)nn2c3ccccc3n(CCN3CCOCC3)c12", "IC50": "> 100"}, {"compound": "CSc1nc2c(c(=O)[nH]c(=O)n2C)n1Cc1ccccc1", "IC50": 30.1}, {"compound": "O=C(NC(C(=O)c1ccccc1)N1CCOCC1)c1cccs1", "note": "(stereo not drawn)", "IC50": "> 100"}, {"compound": "C/C(=N/Nc1nc2c(c(=O)[nH]c(=O)n2C)n1Cc1ccccc1)c1ccccc1", "IC50": 11.4}, {"compound": "Cc1cccc(C)c1NC(=O)CSc1nnc(CN2CCOCC2)n1C", "IC50": "> 100"}, {"compound": "CCN1CCN(Cc2nc3cc(Cl)ccc3n2Cc2ccccc2)CC1", "IC50": "> 100"}, {"compound": "CCN(CC)Cc1c(C(=O)N/N=C/c2ccco2)nnn1-c1nonc1N", "IC50": "> 100"}, {"compound": "COc1ccccc1N1C(=O)CC(N2CCC(C(N)=O)CC2)C1=O", "note": "(stereo not drawn)", "IC50": "> 100"}, {"compound": "C=CCn1c(N/N=C\\c2cccc([N+](=O)[O-])c2)nc2c1c(=O)[nH]c(=O)n2C", "IC50": 37.5}, {"compound": "COc1ccc(OC)c(C(O)c2coc3ccc(O)c(CN4CCOCC4)c23)c1", "note": "(stereo not drawn)", "IC50": "> 100"}, {"compound": "COc1ccc(CN2CCCN(Cc3ccc(OC)cc3)C2c2cccc(C)n2)cc1", "IC50": "> 100"}, {"compound": "Cn1c(=O)[nH]c(=O)c2c1nc(N/N=C\\c1ccc([N+](=O)[O-])cc1)n2Cc1ccccc1", "IC50": 57.9}, {"compound": "C/C(Cl)=C\\CSc1nc2c(c(=O)[nH]c(=O)n2C)n1CC(O)CCc1ccccc1", "note": "(stereo not drawn)", "IC50": 3.75}, {"compound": "COc1cccc(C2CC(C(F)(F)F)n3ncc(C(=O)Nc4ccc(OC)cc4OC)c3N2)c1", "note": "(stereo not drawn)", "IC50": "> 100"}, {"compound": "CN1CCN(Cc2c3c(c(CN4CCN(C)CC4)c4c2CCC4)CCC3)CC1", "IC50": "> 100"}, {"compound": "Cc1ccc(C2CC(c3ccccc3)=NN2C(=O)CN2CCOCC2)o1", "note": "(stereo not drawn)", "IC50": "> 100"}, {"compound": "C/C(Cl)=C\\CSc1nc2c(c(=O)n(Cc3ccccc3)c(=O)n2C)n1Cc1ccccc1", "IC50": 10.9}]}]}
